The results in this text go back to patent US20050154042A1, “N-alkyl pyrroles as HMG-CoA reductase inhibitors” (priority 2003, published 2005).

Data set [1] concerns rat hepatocytes. Briefly: Sterol biosynthesis in rat hepatocytes (14C acetic acid labeling). Conditions: Hepatocyte, 14C cholesterol from 14C acetic acid, 4 hrs pre-incubation + 4 hrs labeling. Type of data set: cell-based. The procedure: Protocol for Sterol Biosynthesis in Rat Hepatocytes:
(§1) Cell Culture, Compounds Treatment and Cell Labeling:
Frozen rat hepatocytes purchased from XenoTech(cat# N400572) were seeded on 6-well collagen I coated plates at a density of […]. The cells were grown in DMEM medium (Gibco, #11054-020) containing 10% FBS and 10 mM HEPES(Gibco # 15630-080) for 24 hrs. The cells were pre-incubated with compounds for 4 hrs and then labeled by incubating in medium containing 1 uCi/per ml of ^14C acetic acid for an additional 4 hrs. After labeling, the cells were washed twice with 5 mM MOPS solution containing 150 mM NaCl and 1 mM EDTA and collected in the lysis buffer containing 10% KOH and 80%(vol.) ethanol.
Cholesterol Extraction and Data Analysis:
In order to separate labeled cholesterol from labeled non-cholesterol lipids, the cells lysates were subject to saponification at 60° C. for 2 hrs. The lysates were then combined with 0.5 volume of H2O and 2 volumes of hexane, followed by 30 minutes of vigorous shaking. After the separation of two phases, the upper-phase solution was collected and combined with 5 volumes of scintillation cocktail. The amount of ^14C cholesterol was quantified by liquid scintillation counting. The IC50 values were calculated with GraphPad software (Prism 3.03).

Data set [2] addresses T1, HMGCoA (3-Hydroxy-3-methylglutaryl CoA) Reductase (Rattus norvegicus, UniProt P51639).
T1 construct: Male Charles River Sprague-Dawley rats were fed with 2.5% cholestyramine in rat chow diets for 5 days before sacrificing; from tissue; host or cells: liver microsomes of male Sprague-Dawley rats fed cholestyramine
T1 sequence (P51639 1-887): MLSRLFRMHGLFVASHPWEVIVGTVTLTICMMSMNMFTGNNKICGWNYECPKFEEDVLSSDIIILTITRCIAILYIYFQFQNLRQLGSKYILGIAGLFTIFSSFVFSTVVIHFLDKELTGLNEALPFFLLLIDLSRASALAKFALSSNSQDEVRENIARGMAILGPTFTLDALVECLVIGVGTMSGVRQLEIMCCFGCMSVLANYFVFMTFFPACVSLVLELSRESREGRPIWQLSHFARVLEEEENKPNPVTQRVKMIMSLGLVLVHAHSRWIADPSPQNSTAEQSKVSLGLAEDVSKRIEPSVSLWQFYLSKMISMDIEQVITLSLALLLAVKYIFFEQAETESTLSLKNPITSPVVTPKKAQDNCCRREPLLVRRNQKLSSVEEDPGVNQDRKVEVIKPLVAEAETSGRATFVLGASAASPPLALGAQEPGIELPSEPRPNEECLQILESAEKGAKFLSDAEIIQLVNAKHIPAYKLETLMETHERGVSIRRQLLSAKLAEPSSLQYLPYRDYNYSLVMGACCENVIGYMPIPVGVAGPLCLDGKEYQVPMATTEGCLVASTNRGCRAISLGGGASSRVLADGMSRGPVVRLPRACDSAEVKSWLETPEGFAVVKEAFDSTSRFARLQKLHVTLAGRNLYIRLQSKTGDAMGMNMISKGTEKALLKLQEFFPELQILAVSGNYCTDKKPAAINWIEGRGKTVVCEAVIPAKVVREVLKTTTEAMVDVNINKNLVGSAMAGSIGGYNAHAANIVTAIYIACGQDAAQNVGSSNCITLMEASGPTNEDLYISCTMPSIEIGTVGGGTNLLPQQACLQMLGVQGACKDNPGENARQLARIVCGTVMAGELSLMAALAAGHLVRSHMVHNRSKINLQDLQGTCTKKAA
In words: HMGCoA reductase assay with rat liver microsomes (14C-HMGCoA). Conditions: 45 min at 37° C. The format is biochemical. From the text:
(See, e.g., J. of Lipid Research 1998; 39: 75-84; Analytical Biochemistry, 1991; 196: 211-214; RR740-01077 Pharmacology 8, Nov., 1982) Accordingly, such compounds and formulations comprising such compounds are useful for treating, controlling or preventing inter alia hypercholesterolemia, hyperlipidemia, hypertriglyceridemia or atherosclerosis.
Rat Liver Microsomal Isolation Procedure:
Male Charles River Sprague-Dawley rats were fed with 2.5% cholestyramine in rat chow diets for 5 days before sacrificing. Livers were minced and homogenized in a sucrose homogenizing solution in an ice bath 10 times. Homogenates were diluted into a final volume of 200 mL, and centrifuged 15 min. with a Sorvall Centrifuge at 5° C., 10,000 rpm (12,000×G). The upper fat layer was removed and the supernatant decanted into fresh tubes. This step was repeated one more time before transferring the supernatant into ultracentrifuge tubes and centrifuged at 36,000 rpm (105,000×G) for an hour at 5° C. The resulting supernatant was discarded and the pellet was added to total of 15 mL 0.2 M KH2PO4. Pellets were homogenized gently by hand about 10 times. Samples were pooled and diluted into total of 60 mL buffer. The protein concentration of the homogenate was determined by the […] using a BCA kit from Pierce Chemical Company. 1 mL aliquots of microsomes were kept frozen in liquid nitrogen.
HMGCoA (3-Hydroxy-3-methylglutaryl CoA) Reductase Assay:
[3-^14C]-HMGCoA (57.0 mCi/mmol) was purchased from Amersham Biosciences, UK. HMGCoA, mevalonolactone, NADPH were purchased from Sigma Chemical Co. AG 1-8X resin was purchased from Bio-Rad Laboratory.
One μL of dimethyl sulfoxide (DMSO) or 1 μL of DMSO containing a test compound at a concentration sufficient to give a final assay concentration of between 0.1 nM to 1 mM was placed into each well of a Corning 96 well plate. […] Scintillation cocktail (Ultima-Flo-M) was added into each well and plates counted on a Trilux Microbeta Counter. The IC50 values were calculated with GraphPad software (Prism). […]
For orientation: Liver microsomes are a subcellular fraction often used to study metabolism.

In data set [3] the test system is L6 rat myoblast. Briefly: Sterol biosynthesis in L6 rat myoblast (14C acetic acid labeling). Type of data set: cell-based. The following applies: 14C cholesterol from 14C acetic acid, 3 hours pre-incubation + 3 hours labeling. The procedure:
C.) Protocol for Sterol Biosynthesis in L6 Rat Myoblast:
as §1
L6 rat myoblast purchased from ATCC(CRL-1458) were grown in T-150 vented culture flasks and seeded on 12-well culture plates at a density of 60,000 cells per well. The cells were grown in DMEM, (Dulbecco's Modified Eagle Medium) (Gibco, #10567-014) containing 10% heat inactivated FBS (Fetal Bovine Serum) (Gibco # 10082-139) for 72 hours until reaching confluence. The cells were pre-incubated in media with compound and 0.2% DMSO (dimethyl sulfoxide) for 3 hours and then labeled by incubating in medium containing compound, 0.2% DMSO and 1 μCi/per mL of ^14C acetic acid for an additional 3 hours. […]
Lipid ester bonds were hydrolyzed by saponification of the lysates at 60° C. for 2 hours. […] The amount of ^14C cholesterol was quantified by scintillation counting in a Trilux 1450 plate reader (Wallac). The IC50 values were calculated from % inhibitions relative to negative controls vs. compound concentration on Microsoft excel 2000 data analysis wizard using a sigmoid inhibition curve model with formula: y=Bmax(1−(x^n/K^n+x^n))+y2 Where K is the IC50 for the inhibition curve, X is inhibitor concentration, Y is the response being inhibited and Bmax+Y2 is the limiting response as X approaches zero.

The IC50 is the point on the concentration scale where inhibition reaches its midpoint. The melting point is the temperature, or range, at which the solid turns liquid.

Counter-ions that a name gives are not always drawn. Bounds are passed on as bounds.

`CC(C)n1c(CC[C@@H](O)C[C@@H](O)CC(=O)O)c(-c2ccc(F)cc2)c(-c2ccccc2)c1C(=O)Nc1ccc(F)cc1` [Example 6, (3R,5R)-7-[3-(4-Fluoro-phenyl)-5-(4-fluoro-phenylcarbamoyl)-1-isopropyl-4-phenyl-1H-pyrrol-2-yl]-3,5-dihydroxy-heptanoic Acid Sodium Salt]: the concentration for half-maximal inhibition (IC50) was determined as 0.23 nM in data set [1] and 4.1 nM in data set [2].
As for `CC(C)n1c(CCC(O)CC(O)CC(=O)[O-])c(-c2ccc(F)cc2)c(-c2ccccc2)c1C(=O)Nc1ccc(C(=O)[O-])cn1.[Na+].[Na+]` (stereo not drawn) [Example 25, 6-{[5-(6-Carboxy-3,5-dihydroxy-hexyl)-4-(4-fluoro-phenyl)-1-isopropyl-3-phenyl-1H-pyrrole-2-carbonyl]-amino}-nicotinic Acid di-sodium Salt], the melting point is greater than 250 °C. Moreover, in data set [1], the IC50 amounted to 0.19 nM. Moreover, in data set [3], the IC50 was determined as 2270 nM. The same compound had an IC50 in data set [2] of 0.61 nM.
The corresponding values for `CC(C)n1c(CC[C@@H](O)C[C@@H](O)CC(=O)[O-])c(-c2ccc(F)cc2)c(-c2ccccc2)c1C(=O)Nc1ccccc1.[Na+]` [Example 1, (3R,5R)-7-[3-(4-fluoro-phenyl)-1-isopropyl-4-phenyl-5-phenylcarbamoyl-1H-pyrrol-2-yl]-3,5-dihydroxy-heptanoic Acid Sodium Salt] are 239 to 241 °C, 0.74 nM, 157 nM and 12 nM.
For the compound `CC(C)n1c(CC[C@@H](O)C[C@@H](O)CC(=O)[O-])c(-c2ccc(F)cc2)c(-c2ccccc2)c1C(=O)NCc1ccc(C(=O)[O-])cc1.[Na+].[Na+]` [Example 164, (3R,5R)-4-({[5-(6-Carboxy-3,5-dihydroxy-hexyl)-4-(4-fluoro-phenyl)-1-isopropyl-3-phenyl-1H-pyrrole-2-carbonyl]-amino}-methyl)-benzoic Acid Disodium Salt], the melting point was 255 to 260 °C.
Take `CC(C)n1c(CC[C@@H](O)C[C@@H](O)CC(=O)[O-])c(-c2ccc(F)cc2)c(-c2ccccc2)c1C(=O)NCc1ccccc1.[Na+]` [Example 114, (3R,5R)-7-[5-Benzylcarbamoyl-3-(4-fluoro-phenyl)-1-isopropyl-4-phenyl-1H-pyrrol-2-yl]-3,5-dihydroxy-heptanoic Acid Sodium Salt]: the melting point was in the range of 186 to 189 °C.
Same read-out and setting: under `CNC(=O)c1c(-c2ccccc2)c(-c2ccc(F)cc2)c(CC[C@@H](O)C[C@@H](O)CC(=O)[O-])n1C(C)C.[Na+]` [Example 156, (3R,5R)-7-[3-(4-Fluoro-phenyl)-1-isopropyl-5-methylcarbamoyl-4-phenyl-1H-pyrrol-2-yl]-3,5-dihydroxy-heptanoic Acid Sodium Salt] stands 238 to 240 °C; under `CC(C)n1c(CC[C@@H](O)C[C@@H](O)CC(=O)[O-])c(-c2ccc(F)cc2)c(-c2ccc(F)cc2)c1C(=O)Nc1ccccc1O.[Na+]` [Example 134, (3R,5R)-7-[3,4-Bis-(4-fluoro-phenyl)-5-(2-hydroxy-phenylcarbamoyl)-1-isopropyl-1H-pyrrol-2-yl]-3,5-dihydroxy-heptanoic Acid Sodium Salt], 222 to 223 °C.
In turn, `CC(C)n1c(CC[C@@H](O)C[C@@H](O)CC(=O)[O-])c(-c2ccc(F)cc2)c(-c2ccc(F)cc2)c1C(=O)Nc1ccc(O)cc1.[Na+]` [Example 133, (3R,5R)-7-[3,4-Bis-(4-fluoro-phenyl)-5-(4-hydroxy-phenylcarbamoyl)-1-isopropyl-1H-pyrrol-2-yl]-3,5-dihydroxy-heptanoic Acid Sodium Salt] showed a melting point of 228 to 230 °C.
